Data taken from patent publication US20230272370A1, “GENETICALLY ENCODED YEATS DOMAIN PROBE AND APPLICATIONS THEREOF” (THE UNIVERSITY OF HONG KONG, priority 2020, published 2023).
Values belong to the molecule of their own block, whether it stands above or below them. No end group written: not given here.

Assays:
[1] = test system: AF9 protein; test: FRAP of AF9-sfGFP in HEK 293T cells (chromatin binding of AF9); format: cell-based, human
Excerpt: In one embodiment, fluorescence recovery after photobleaching (FRAP) may be used to analyze diffusion and binding of proteins in living cells. It has also been used to assess the cellular efficiency of bromodomain inhibitors in living cells.
In the FRAP experiments, the protein of interest is genetically tagged with a fluorescent protein (e.g., GFP) and expressed inside the cell. Then a portion of the fluorescent-tagged protein are photobleached by an intense laser pulse, and the fluorescence recovery of that photobleached region, which is caused by the migration of fluorescent-tagged proteins back into the bleached area, is monitored over time (FIG. 27a). A fluorescence recovery curve can be generated by plotting the fluorescence intensity with time, and the half time (t1/2), which is the time that the fluorescence intensity takes to recover to half, could also be calculated (FIG. 27b).
Since AF9 protein was reported to associate with chromatin by its YEATS domain, we reasoned that the V3 inhibitor would reduce the binding of AF9 to chromatin and increase its mobility. To test this hypothesis, I fused sfGFP to the C-terminal of AF9 protein and replaced the C-terminal sfGFP of V3-NLS and V3C-NLS to a red fluorescence mCherry protein to avoid fluorescence overlap in FRAP experiments. […]
HEK 293T cells were seeded in 3.5 cm confocal dish at a density of 4-6×10^5 cells per well in 2 mL complete growth medium and let them reach 60-80% confluency at the time of transfection. […] An argon laser (488 nm) was used for photobleaching and fluorescence imaging of sfGFP. The detector was set to detect fluorescence between 500 and 550 nm. […] Fluorescence recovery of sfGFP was monitored by a time series imaging.
The average fluorescence intensity was measured for three regions at each imaging time point, a bleached region (Fbl), a non-bleached reference region (Fref) to correct for the FRAP curve for photofading caused by imaging, the location of reference region should be as far apart as possible from the bleached region. […]

[2] = target: T1, AF9 YEATS domain (Homo sapiens, UniProt P42568); test: Isothermal titration calorimetry (ITC) with AF9 YEATS domain; format: binding; details: 25° C.
T1 sequence (P42568 1-138 limits assumed): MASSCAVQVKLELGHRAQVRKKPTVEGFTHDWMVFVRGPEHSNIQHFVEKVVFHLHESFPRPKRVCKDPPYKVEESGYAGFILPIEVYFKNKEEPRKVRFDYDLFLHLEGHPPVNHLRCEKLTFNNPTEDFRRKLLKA
Procedure: Next, I tested whether V3 protein could bind to the YEATS domains and act as a YEATS domain inhibitor. Isothermal titration calorimetry (ITC) was performed to determine the dissociation constant (Kd) between V3 and all four YEATS domain-containing proteins in humans (i.e. AF9, ENL, Gas41, and YEATS2).
ITC was first performed with V3 protein and the AF9 YEATS domain.
Experiments were conducted at 25° C. on a MicroCal PEAQ-ITC titration calorimeter (MicroCal). The buffer for the titration is (150 mM NaCl, 50 mM HEPES, 1 mM TCEP, pH 7.5). Proteins were dialyzed to the titration buffer for overnight before the experiment. The reaction cell contained 200 μL of 30 μM YEATS domain proteins, which was titrated with 300 μM V3 or V3C proteins (10-fold higher than the YEATS domain protein concentration used). The titration contained 20 injections, first 0.5 μL, and all subsequent injections of 2 μL. The binding isotherm was fit with MicroCal PEAQ-ITC analysis software, using a single set of independent sites to determine the thermodynamic dissociation constants and stoichiometry.

[3] = target: T2, CobB (Escherichia coli, UniProt P75960); test: ESI-MS of V3 expressed in E. coli with NAM (CobB deacylation); format: cell-based
T2 construct: endogenous in cells; host or cells: E. coli DH10B
Procedure: Since nicotinamide (NAM) is a known inhibitor of the sirtuin family of enzymes, I expressed V3 in the presence of 20 mM NAM.
However, the V3 protein expression level was severely attenuated in the presence of 20 mM NAM (data not shown). Therefore, I attempted several lower NAM concentrations and assessed the purified V3 protein using ESI-MS. […] Thus, 10 mM NAM was added to the culture medium for the subsequent expression of V3 in E. coli.
DH10B cells harboring pEVOL-KfuRS and pBad-V3-2 plasmid were cultured in LB plus corresponding antibiotics. Protein expression was induced by adding 0.2% arabinose, 10 mM NAM, and 1 mM Kfu when O.D. 600 reached 0.4. After expression at 37° C. for 20 h, cells were harvested and washed with PBS. Protein purification was the same as sfGFP150Kfu except that 10 mM NAM was added to lysis buffer to prevent CobB deacylation. V3C was expressed and purified the same as V3.

[4] = target: AF9 YEATS domain (human) (UniProt P42568); test: ITC, 25° C., 300 µM V3 titrated into 30 µM AF9 YEATS domain
[5] = target: T3, V3-GAL4/AF9-VP64 complex (Homo sapiens, UniProt P42568); test: Luciferase-based two-hybrid assay (V3-GAL4 bait, AF9-VP64 prey); format: cell-based; details: V3-GAL4 bait with AF9-VP64 prey, normalized to V3C-GAL4
T3 construct: expressed in transfected cells; host or cells: HEK 293T
T3 sequence (P42568 1-568): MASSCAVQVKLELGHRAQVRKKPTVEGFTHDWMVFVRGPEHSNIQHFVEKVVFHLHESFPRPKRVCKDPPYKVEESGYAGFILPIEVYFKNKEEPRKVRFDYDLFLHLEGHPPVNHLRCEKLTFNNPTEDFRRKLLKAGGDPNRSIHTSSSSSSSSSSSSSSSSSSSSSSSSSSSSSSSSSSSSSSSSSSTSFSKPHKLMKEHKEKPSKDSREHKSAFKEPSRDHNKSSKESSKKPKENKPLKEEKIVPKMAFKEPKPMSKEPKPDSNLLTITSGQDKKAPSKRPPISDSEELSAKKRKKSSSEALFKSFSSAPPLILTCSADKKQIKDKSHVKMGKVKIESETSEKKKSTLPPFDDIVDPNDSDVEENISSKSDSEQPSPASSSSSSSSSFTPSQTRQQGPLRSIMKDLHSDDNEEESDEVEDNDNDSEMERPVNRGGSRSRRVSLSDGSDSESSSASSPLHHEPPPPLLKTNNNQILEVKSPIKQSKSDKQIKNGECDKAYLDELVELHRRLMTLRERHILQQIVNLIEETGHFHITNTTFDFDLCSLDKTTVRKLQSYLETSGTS
Procedure: FIG. 34A-34D Luciferase-based two hybrid assay. (A) Schematic of the Luciferase-based two hybrid assay. (B) Schematic showing V3-GAL4 and V3C-GAL4 fusion proteins. (C) Immunoblotting analysis the expression of V3-GAL4 and V3C-GAL4 in the presence or absence of 1 mM Kfu in HEK 293T cells. (D) Relative luciferase signal of V3-GAL4 or V3C-GAL4 ‘bait’ in the presence of AF9-VP64 ‘prey’ protein, and with the addition of different concentrations of iMLLT. The luminescence of all the samples was normalized to the V3C-GAL4 sample. Error bars represent SEM from three biological replicates.
To solve the problems in current cell-based methods, as well as develop a robust cell-based technology for the in vivo screening and validation of YEATS domain inhibitors. We sought out to take advantage of the well-developed luciferase-based two-hybrid assay. In the two-hybrid assay, the genetically encoded YEATS domain probe was fused with a GAL4 DNA binding domain and served as ‘bait’, while a transcription activation domain (VP64) was linked to AF9 protein and acted as ‘prey’ (FIG. 34a, b, c). […]

T2 sequence (P75960 whole entry): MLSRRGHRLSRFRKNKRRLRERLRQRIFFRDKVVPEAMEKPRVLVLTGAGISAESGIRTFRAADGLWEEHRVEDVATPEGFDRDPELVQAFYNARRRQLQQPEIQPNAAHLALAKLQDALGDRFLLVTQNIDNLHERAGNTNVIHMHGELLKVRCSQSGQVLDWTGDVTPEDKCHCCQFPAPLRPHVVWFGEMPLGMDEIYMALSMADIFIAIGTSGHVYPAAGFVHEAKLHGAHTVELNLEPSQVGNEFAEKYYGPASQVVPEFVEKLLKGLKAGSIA

Molecule: O=C(CCCCCCC(=O)Nc1ccccc1)NO [SAHA, suberoylanilide hydroxamic acid]
half recovery time (t1/2) of AF9-sfGFP ([1]; SAHA 2.5 μM for 18 hours before FRAP, untreated 2.5±0.1 seconds): 4.7 ± 0.2 s
final fluorescence (fluorescence at plateau), of the initial intensity ([1]; SAHA-treated cells, untreated 90%): 75%

Molecule: NC(=O)c1cccnc1 [NAM, nicotinamide]
inhibition of the deacylation activity of CobB ([3]; 10 mM NAM): sufficient to inhibit
inhibition of the deacylation activity of CobB ([3]; 20 mM NAM): completely inhibits

Molecule: V3-NLS (mCherry): V3-NLS with C-terminal sfGFP replaced by red fluorescence mCherry protein (KQTARKSTGGHHHHHHKRPAATKKAGQAKKKKL; also: C-terminal mCherry fusion (carrier not in chain))
half recovery time (t1/2) of AF9-sfGFP ([1]; inhibitor co-expressed, 2.5 μM SAHA added to all groups, no inhibitor control 4.7±0.2 s): 3.1 ± 0.2 s

Results, then the molecule that gave them:

dissociation constant (Kd) [2]: no detectable binding
Molecule: V3C: control inhibitor: H3 (4-13) with a normal lysine at the H3 K9 site fused to N-terminal of sfGFP (KQTARKSTGG; also: C-terminus fused to sfGFP)

Kd [4]: 2350 nM
Molecule: V3 protein (genetically encoded YEATS domain inhibitor V3; histone H3 (4-13) with 2-furancarbonyl lysine at K9 fused to sfGFP and 6×His tag) (designed binder)

activation level of luciferase [5]: around 20 folds
B1: V3-GAL4: genetically encoded YEATS domain probe fused with a GAL4 DNA binding domain, 'bait' (protein)
chain: KQTARKSTGGMKLLSSIEQACDICRLKKLKCSKEKPKCAKCLKNNWECRYSPKTKRSPLTRAHLTEVESRLERLEQLFLLIFPREDLDMILKMDSLQDIKALLTGLFVQDNVNKDAVTDRLASVETDMPLTLRQHRISATSSSEESSNKGQRQLTVS
